The source of these data is ChEMBL document CHEMBL1138331, “Potent antimalarial activity of 2-aminopyridinium salts, amidines, and guanidines” (J Med Chem, 2007).

SMILES strings stand for the structures.

As usually defined, the pKa is the negative logarithm of the acid dissociation constant. Low values mean a stronger acid or weaker base, high ones a weaker acid or stronger base. Usually IC50 stands for the concentration that gives 50% inhibition. Low readings indicate greater potency in that assay, high ones weaker potency in that assay.

One data set deals with Plasmodium falciparum. The experiment in a line: microbe, parasite or virus in culture. The note with it: Nigerian, 48 h.

Description for Plasmodium falciparum: Antimalarial activity against Plasmodium falciparum Nigerian in human erythrocytes after 48 hrs
Description for physchem: Dissociation constant, pKa by potentiometric titration

With `N=c1ncc(-c2ccccc2)cn1CCCCCCCCCCCCn1cc(-c2ccccc2)cnc1=N`, in “physchem”, the pKa was 11.3. The same compound gave an IC50 with Plasmodium falciparum of 12.3 nM.
With `N=c1sccn1CCCCCCCCCCCCn1ccsc1=N`, in the data set “physchem”, the pKa came out at 10.1. Moreover, in the data set with Plasmodium falciparum, the IC50 was 800 nM.
On to `CCCCCCCCCCCC[n+]1ccc(C)cc1N`, for which the IC50 with Plasmodium falciparum was 1550 nM.
The same measure, in the same setting: the result for `C(CCCCCCNC1=NCCCCC1)CCCCCNC1=NCCCCC1` reads 2.2 nM.
Turning to `C(CCCCCCC1=NCCN1)CCCCCC1=NCCN1`, in the data set “physchem”, the pKa turned out to be 13. Further, it took 2 nM to reach half-maximal inhibition in the data set with Plasmodium falciparum (IC50).
In the same order, the values of `C(CCCCCCC1=NCCCN1)CCCCCC1=NCCCN1` are 13.1 and 2.3 nM.
The compound `C(CCCCCCNC1=NCCC1)CCCCCNC1=NCCC1` came in with a pKa in “physchem” of 12.1. In the data set on Plasmodium falciparum, this compound had a half-inhibitory concentration (IC50) of 3.8 nM.
Consider `N=c1sc(-c2cccc(Cl)c2)nn1CCCCCCCCCCCCn1nc(-c2cccc(Cl)c2)sc1=N`, for which, in “physchem”, the pKa came out at 7.7. In addition, in the data set with Plasmodium falciparum, the IC50 was 18500 nM.
In “physchem”, `CC(=N)NCCCCCCCCCCCCNC(C)=N` returned a pKa of 12.6. In the data set on Plasmodium falciparum, this compound yielded an IC50 of 2 nM.
With `CCN(CC)CCOCCCCCCCCCCCCOCCN(CC)CC`, 120 nM corresponded to half-maximal inhibition with Plasmodium falciparum (IC50).
The compound `Cc1nccn1CCCCCCCCCCCCn1ccnc1C` showed an IC50 in the data set on Plasmodium falciparum of 270 nM.
`C(CCCCCCCCN1CCCC1)CCCCCCCN1CCCC1` gave a 50% inhibitory concentration (IC50) in the data set on Plasmodium falciparum of 110 nM.
For `N=c1sc(-c2cccs2)nn1CCCCCCCCCCCCn1nc(-c2cccs2)sc1=N`, the pKa in the data set “physchem” turned out to be 7.8. Moreover, the IC50 in the data set with Plasmodium falciparum came to 8150 nM.
Turning to `c1cn(CCCCCCCCCCCCn2ccnc2)cn1`, half-maximal inhibition in the data set with Plasmodium falciparum (IC50) was put at 2000 nM.
The compound `Nc1ccc(-c2ccccc2)c[n+]1CCCc1ccc(CCC[n+]2cc(-c3ccccc3)ccc2N)cc1` registered a pKa in “physchem” of 12.8. The IC50 in the data set with Plasmodium falciparum was determined as 13 nM.
`C(CCCCCCC1=NC2CCCCC2N1)CCCCCC1=NC2CCCCC2N1` (stereo unspecified) showed a half-maximal inhibitory concentration (IC50) with Plasmodium falciparum of 3 nM.
In “physchem”, `Cc1cc[n+](CCCCCCCCCCCC[n+]2ccc(C)cc2N)c(N)c1` registered a pKa of 13.5. The compound also gave a half-maximal inhibitory concentration (IC50) with Plasmodium falciparum of 0.5 nM.
For the compound `Cc1cc[n+](CCCCCCCC[n+]2ccc(C)cc2N)c(N)c1`, the IC50 in the data set on Plasmodium falciparum amounted to 7.2 nM.
`CC1(C)CN=C(CCCCCCCCCCCCC2=NCC(C)(C)N2)N1` returned an IC50 with Plasmodium falciparum of 1 nM.
For the compound `c1ccc2[nH]c(CCCCCCCCCCCCc3nc4ccccc4[nH]3)nc2c1`, the pKa in the data set “physchem” was found to be 9. The same compound displayed an IC50 in the data set on Plasmodium falciparum of 1800 nM.
Compound `Cc1ccc[n+](CCCCCCCCCCCC[n+]2cccc(C)c2N)c1N` displayed a pKa in “physchem” of 13.3. Moreover, in the data set with Plasmodium falciparum, 1.8 nM corresponded to half-maximal inhibition (IC50).
In the same order, the values of `N=c1cc2ccc3ccccc3c2nn1CCCCCCCCCCCCn1nc2c(ccc3ccccc32)cc1=N` are 11.7 and 50 nM.
The compound `CCN(CC)CCCCCCCCCCCCN(CC)CC` registered a 50% inhibitory concentration (IC50) in the data set on Plasmodium falciparum of 540 nM.
The compound `CN1CCN=C1CCCCCCCCCCCCC1=NCCN1C` returned a pKa in “physchem” of 11. In the data set with Plasmodium falciparum, this compound had an IC50 of 43 nM.
In turn, `CN(C)/C(=N\C#N)NCCCCCCCCCCCCN/C(=N\C#N)N(C)C` showed an IC50 in the data set with Plasmodium falciparum of 8500 nM.
Same read-out and setting: the result for `C[N+]1(CCCCCCCCCCCCCCCC[N+]2(C)CCCC2COc2ccc(C(F)(F)F)cc2)CCCC1COc1ccc(C(F)(F)F)cc1` (stereo unspecified) reads 29 nM.
Consider `N=C(CCCCCCCCCCCCC(=N)N1CCCC1)N1CCCC1`, for which the pKa in the data set “physchem” worked out at 13.2. Further, inhibition with Plasmodium falciparum was half-maximal at 0.8 nM (IC50).
For the compound `N=c1n(CCCCCCCCCCCCn2c(=N)n(Cc3ccccc3)c3ccccc32)c2ccccc2n1Cc1ccccc1`, in the data set “physchem”, the pKa stood at 9.4. This compound returned an IC50 in the data set with Plasmodium falciparum of 450 nM.
The compound `CC1(C)CN=C(NCCCCCCCCCCCCNC2=NCCCN2)NC1` displayed a 50% inhibitory concentration (IC50) in the data set with Plasmodium falciparum of 0.6 nM.
Regarding `OCC1CCCN1CCCCCCCCCCCCCCCCN1CCCC1CO` (stereo unspecified), the 50% inhibitory concentration (IC50) with Plasmodium falciparum worked out at 160 nM.
`Nc1ccc(Cl)c[n+]1CCCCCCCCCCCC[n+]1cc(Cl)ccc1N` returned a pKa in “physchem” of 12.8. Inhibition with Plasmodium falciparum was half-maximal at 1.4 nM (IC50).
In turn, `Cc1cc[n+](CCCc2ccc(CCC[n+]3ccc(C)cc3N)cc2)c(N)c1` had a pKa in “physchem” of 12.6. The same compound came in with an IC50 with Plasmodium falciparum of 2.9 nM.
With `N=C(N)CCCCCCCCCCCCC(=N)N`, the pKa in the data set “physchem” stood at 13.6. For the same compound, the IC50 in the data set with Plasmodium falciparum was 0.3 nM.
`CN(C)C(=N)CCCCCCCCCCCCC(=N)N(C)C`: the pKa in “physchem” was determined as 12.8. Further, inhibition in the data set with Plasmodium falciparum was half-maximal at 6.3 nM (IC50).
The like results for `CCOC(=N)CCCCCCCCCCCCC(=N)OCC` were, in that order, 7.6 and 52000 nM.
In the case of `C(CCCCCCNC1=NCCN1)CCCCCNC1=NCCN1`, the pKa in “physchem” is 13.5. In addition, in the data set on Plasmodium falciparum, the IC50 is 1.7 nM.
As to `Nc1cc(-c2ccccc2)cc[n+]1CCCc1ccc(CCC[n+]2ccc(-c3ccccc3)cc2N)cc1`, in the data set “physchem”, the pKa was 12.6. In the data set on Plasmodium falciparum, this compound came in with an IC50 of 4.5 nM.
The like results for `C(CCCCCCNC1=NCCCC1)CCCCCNC1=NCCCC1` were, in that order, 12.7 and 3 nM.
In the case of `Nc1cccc[n+]1CCCCCCCCCCCC[n+]1ccccc1N`, the pKa in the data set “physchem” was 13.5. In the data set on Plasmodium falciparum, this compound came in with an IC50 of 2.3 nM.
In turn, `Cc1ccc(N)[n+](CCCCCCCCCCCC[n+]2cc(C)ccc2N)c1` gave a pKa in “physchem” of 13. The compound also had a half-inhibitory concentration (IC50) in the data set with Plasmodium falciparum of 0.5 nM.
As to `N=C1CCCN1CCCCCCCCCCCCN1CCCC1=N`, in the data set on Plasmodium falciparum, the IC50 worked out at 4 nM.
In the data set “physchem”, `N=C(N)CCCCCCCCCCCCCCCCC(=N)N` came in with a pKa of 13.2. The compound also returned an IC50 in the data set on Plasmodium falciparum of 100 nM.
Take `CC1CN=C(CCCCCCCCCCCCC2=NCC(C)N2)N1` (stereo unspecified): the IC50 in the data set on Plasmodium falciparum stood at 1 nM.
Compound `N=c1ncccn1CCCCCCCCCCCCn1cccnc1=N` registered a pKa in “physchem” of 11.7. Besides, in the data set on Plasmodium falciparum, 145 nM corresponded to half-maximal inhibition (IC50).
In the data set with Plasmodium falciparum, `CC[N+](CC)(CC)CCOCCCCCCCCCCCCOCC[N+](CC)(CC)CC` showed a 50% inhibitory concentration (IC50) of 3.3 nM.
Consider `Cc1ccc(-c2nn(CCCCCCCCCCCCn3nc(-c4ccc(C)cc4)sc3=N)c(=N)s2)cc1`, for which the pKa in “physchem” was found to be 8.1. Further, the concentration for half-maximal inhibition (IC50) with Plasmodium falciparum stood at 5600 nM.
In turn, `N=C(CCCCCCCCCCCCC(=N)N1CCCCC1)N1CCCCC1` registered a pKa in the data set “physchem” of 12.6. The IC50 with Plasmodium falciparum was 4.9 nM.
For `CN(C)C(=N)NCCCCCCCCCCCCNC(=N)N(C)C`, the pKa in “physchem” was 14.1. The same compound gave an IC50 in the data set on Plasmodium falciparum of 1.6 nM.
Regarding `N=c1sc(-c2ccccc2)nn1CCCCCCCCCCCCn1nc(-c2ccccc2)sc1=N`, in “physchem”, the pKa worked out at 8. Also, half-maximal inhibition in the data set on Plasmodium falciparum (IC50) was put at 760 nM.
`N=c1c2ccccc2ccn1CCCCCCCCCCCCn1ccc2ccccc2c1=N` came in with a pKa in “physchem” of 11.1. The IC50 in the data set on Plasmodium falciparum came out at 260 nM.
`N=C(N)NCCCCCCCCCCCCNC(=N)N` returned an IC50 in the data set with Plasmodium falciparum of 0.35 nM.
`C(CCCCCCNC1=NCCCN1)CCCCCNC1=NCCCN1`: in the data set with Plasmodium falciparum, the IC50 is 0.5 nM.
`Cc1cc[n+](CCCCCCCCCCCCCCCC[n+]2ccc(C)cc2N)c(N)c1` returned a pKa in “physchem” of 13.6. For the same compound, inhibition in the data set on Plasmodium falciparum was half-maximal at 3.8 nM (IC50).
As to `C[N+]1(CCCCCCCCCCCCCCCC[N+]2(C)CCCC2CO)CCCC1CO` (stereo unspecified), in the data set with Plasmodium falciparum, the IC50 amounted to 1.5 nM.
In the data set on Plasmodium falciparum, `CCN(CC)CCCCCCCCCCCCCCCCN(CC)CC` yielded an IC50 of 110 nM.
Compound `FC(F)(F)c1ccc(OCC2CCCN2CCCCCCCCCCCCCCCCN2CCCC2COc2ccc(C(F)(F)F)cc2)cc1` (stereo unspecified) had a 50% inhibitory concentration (IC50) with Plasmodium falciparum of 5400 nM.
Still for that read-out and setting: the figure for `C(CCCCCCN/C(=N\C1CCCCC1)NC1CCCCC1)CCCCCN/C(=N\C1CCCCC1)NC1CCCCC1` is 21 nM; for `N=c1sc2ccccc2n1CCCCCCCCCCCCn1c(=N)sc2ccccc21` it is 4000 nM.
In turn, `c1c[nH]c(CCCCCCCCCCCCc2ncc[nH]2)n1` displayed a pKa in the data set “physchem” of 9.8. In the data set with Plasmodium falciparum, half-maximal inhibition (IC50) required 1650 nM.
For `Cn1c(=N)n(CCCCCCCCCCCCn2c(=N)n(C)c3ccccc32)c2ccccc21`, in “physchem”, the pKa was found to be 11.9. The compound further yielded a half-maximal inhibitory concentration (IC50) with Plasmodium falciparum of 65 nM.
